Data taken from paper PMC6356585 (Viruses, 2018).
Counter-ions that a name gives are not always drawn. Like-named read-outs stand apart in the source and are kept apart here.

What was measured:
[1] = test system: Vero cells; experiment: Cell viability (CellTiter-Glo) of Vero cells; type: cell-based
[2] = test system: C6/36 cells; type: cell-based, Ae. albopictus
[3] = test system: ZIKV SPH; experiment: Autophagy compound library screen, ZIKV SPH titer (TCID50) in Vero cells; type: cell-based, Zika virus; conditions: for activity at 10 µM: Zika virus, Vero, read-out: ZIKV SPH Relative Titer in Vero Cells
[4] = test system: ZIKV SPH; experiment: Autophagy compound library screen, ZIKV SPH titer (TCID50) in C6/36 cells; type: cell-based, Zika virus; conditions: for activity at 10 µM: Zika virus, read-out: ZIKV SPH Relative Titer in C6/36 Cells
[5] = 10 µM compound, 96 h, CellTiter-Glo, ± SEM, three independent trials
[6] = 10 µM compound, MOI 0.1, 40 h, TCID50, ± SEM, three independent trials
[7] = 10 µM compound, MOI 0.1, 96 h, TCID50, ± SEM, three independent trials
[8] = C6/36, 10 µM compound, MOI 0.1, 96 h, TCID50, ± SEM, three independent trials
[9] = 10 µM compound, 40 h, CellTiter-Glo, ± SEM, three independent trials

Compound	Vero Viability ([1]; 10 µM)	C6/36 Viability [2, 5]	ZIKV SPH Relative Titer in Vero Cells [3, 6]	ZIKV SPH Relative Titer in C6/36 Cells [4, 7]	C6/36 Viability ([2]; 10 µM)	activity at 10 µM [3, 6]	activity at 10 µM [4, 8]	Vero Viability [1, 9]	activity at 10 µM ([3]; 40 h)	activity at 10 µM ([4]; C6/36, 96 h)
CCN(CC)CCCCN1c2ccccc2Oc2ccc(Cl)cc21.Cl [Akt Inhibitor X·HCl]	32.3 ± 14.2% of untreated control	7 ± 1.9% of untreated control	3.5 ± 3.3% of untreated control	0.0 ± 0% of untreated control	–	–	–	–	–	–
CCCCCC[C@@H]([C@@H](C)O)n1cnc2c(N)ncnc21.Cl [EHNA·HCl]	92.3 ± 2% of untreated control	55 ± 4.2% of untreated control	81.0 ± 7.6% of untreated control	36.4 ± 9.1% of untreated control	–	–	–	–	–	–
Penitrem A	–	–	34.9 ± 10.4% of untreated control	29.8 ± 6.4% of untreated control	–	–	–	–	–	–
COC(=O)Nc1nc2ccc(C(=O)c3cccs3)cc2[nH]1 [Nocodazole]	56.0 ± 9.6% of untreated control	–	–	–	58 ± 2.9% of untreated control	28.4 ± 23.9%	182 ± 39.5%	–	–	–
Cc1cccc(Nc2nc(-c3ccncc3)cs2)c1 [STF-62247]	–	49 ± 9.3% of untreated control	45.0 ± 21.4% of untreated control	169.8 ± 45.9% of untreated control	–	–	–	77.3 ± 11.7% of untreated control	–	–
NS(=O)(=O)C#Cc1ccccc1 [Pifithrin-µ]	49.0 ± 15% of untreated control	72 ± 3.2% of untreated control	38.5 ± 12.4% of untreated control	75.3 ± 27.5% of untreated control	–	–	–	–	–	–
CNc1ccc2oc(C[C@H]3O[C@@]4(CC[C@H]3C)O[C@H]([C@H](C)C(=O)c3ccc[nH]3)[C@H](C)C[C@H]4C)nc2c1C(=O)O [Compound A23187, A23187]	–	1 ± 0% of untreated control	0.5 ± 0.5% of untreated control	0.0 ± 0% of untreated control	–	–	–	17.0 ± 6.7% of untreated control	–	–
O=C(CC(=O)C(F)(F)F)c1cccs1 [TTFA]	–	78 ± 19.9% of untreated control	24.4 ± 7.6% of untreated control	72.8 ± 9.6% of untreated control	–	–	–	90.0 ± 3.5% of untreated control	–	–
COc1cc(CNC(=O)CCCCCCC(C)C)ccc1O [Dihydrocapsaicin]	92.3 ± 3.8% of untreated control	–	–	–	61 ± 2.2% of untreated control	28.7 ± 10.5%	64.1 ± 16%	–	–	–
Cl.O=C(NCc1ccncc1)C12CC3C[C@H](C1)CC(c1ccc(Cl)cc1)(C3)C2 [ABC294640·HCl]	87.7 ± 6.8% of untreated control	32 ± 3.5% of untreated control	51.7 ± 29.2% of untreated control	26.0 ± 10.8% of untreated control	–	–	–	–	–	–
Tunicamycin	–	47 ± 7.6% of untreated control	0.5 ± 0.5% of untreated control	1.8 ± 0.8% of untreated control	–	–	–	56.3 ± 8.7% of untreated control	–	–
CN(C)CCCn1cc(C2=C(c3c[nH]c4ccccc34)C(=O)NC2=O)c2ccccc21 [Go6850]	–	21 ± 0% of untreated control	1.3 ± 0.9% of untreated control	1.4 ± 1.4% of untreated control	–	–	–	36.0 ± 9% of untreated control	–	–
COC(=O)C1=C(C)NC(C)=C([N+](=O)[O-])C1c1ccccc1C(F)(F)F (racemic) [(±)Bay K8644]	–	53 ± 11.1% of untreated control	34.9 ± 15.2% of untreated control	39.4 ± 10.7% of untreated control	–	–	–	94.0 ± 3% of untreated control	–	–
COC(=O)C1=C(C)NC(C)=C(C(=O)OCCCN2CCC(c3ccccc3)(c3ccccc3)CC2)[C@H]1c1cccc([N+](=O)[O-])c1 [Niguldipine]	30.0 ± 14.2% of untreated control	–	–	–	5 ± 2.1% of untreated control	–	–	–	0.2 ± 0.1%	0%
[Cl-].[Li+] [Lithium Chloride]	–	111 ± 10.7% of untreated control	85.4 ± 18.7% of untreated control	167.9 ± 68.4% of untreated control	–	–	–	87.0 ± 1% of untreated control	–	–
Cc1ccc(C(=O)Nc2ccc(S(=O)(=O)[O-])c3cc(S(=O)(=O)[O-])cc(S(=O)(=O)[O-])c23)cc1NC(=O)c1cccc(NC(=O)Nc2cccc(C(=O)Nc3cc(C(=O)Nc4ccc(S(=O)(=O)[O-])c5cc(S(=O)(=O)[O-])cc(S(=O)(=O)[O-])c45)ccc3C)c2)c1.[Na+].[Na+].[Na+].[Na+].[Na+].[Na+] [Suramin·6Na]	92.0 ± 1.2% of untreated control	86 ± 8.4% of untreated control	107.4 ± 44.8% of untreated control	86.6 ± 23.2% of untreated control	–	–	–	–	–	–

Compound	Vero Viability ([1]; 10 µM)	C6/36 Viability [2, 5]	ZIKV SPH Relative Titer in Vero Cells [3, 6]	ZIKV SPH Relative Titer in C6/36 Cells [4, 7]	C6/36 Viability ([2]; 10 µM)	activity at 10 µM [3, 6]	activity at 10 µM [4, 8]	Vero Viability [1, 9]	activity at 10 µM ([3]; 40 h)	activity at 10 µM ([4]; C6/36, 96 h)
CNCCCN1c2ccccc2CCc2ccc(Cl)cc21.Cl [Norclomipramine HCl]	–	19 ± 8.9% of untreated control	3.9 ± 0.5% of untreated control	13.4 ± 8.7% of untreated control	–	–	–	48.7 ± 22.9% of untreated control	–	–
CC(Oc1ccc(O)cc1)(P(=O)(O)O)P(=O)(O)O [L-690,330]	–	87 ± 4.6% of untreated control	40.7 ± 10.6% of untreated control	66.8 ± 2.6% of untreated control	–	–	–	93.7 ± 3.5% of untreated control	–	–
COc1cc([C@@H]2c3cc4c(cc3[C@@H](O[C@@H]3O[C@@H]5CO[C@@H](C)O[C@H]5[C@H](O)[C@H]3O)[C@H]3COC(=O)[C@H]23)OCO4)cc(OC)c1O [Etoposide]	84.0 ± 3.6% of untreated control	119 ± 12.5% of untreated control	–	–	–	134 ± 34.3%	737 ± 89.3%	–	–	–
N#CC(C#N)=C(N)/C(C#N)=C/c1ccc(O)cc1 [AG112]	–	80 ± 5.8% of untreated control	77.7 ± 38.2% of untreated control	85.5 ± 21.3% of untreated control	–	–	–	96.7 ± 3.7% of untreated control	–	–
COc1cccc(-c2cc(=O)c3ccccc3o2)c1N [PD-98059]	–	93 ± 8.4% of untreated control	101.0 ± 23.3% of untreated control	197.3 ± 40% of untreated control	–	–	–	90.7 ± 1.3% of untreated control	–	–
C=CCNC1=C2C[C@@H](C)C[C@H](OC)[C@H](O)[C@@H](C)/C=C(\C)[C@H](OC(N)=O)[C@@H](OC)/C=C\C=C(/C)C(=O)NC(=CC1=O)C2=O [Compound 17-AAG, 17-AAG]	–	79 ± 16.4% of untreated control	36.4 ± 20.8% of untreated control	18.2 ± 11.2% of untreated control	–	–	–	–	–	–
CCCCCCCCCCCCCCC[C@@H](O)[C@H](CO)NC(C)=O [C2-dihydroceramide]	101.3 ± 3.7% of untreated control	97 ± 5.8% of untreated control	36.5 ± 3% of untreated control	262.1 ± 51.7% of untreated control	–	–	–	–	–	–
C=CCNc1ncnc2ccc(Br)cc12 [SMER28]	–	36 ± 5.3% of untreated control	65.0 ± 5.6% of untreated control	38.7 ± 12.2% of untreated control	–	–	–	92.7 ± 3.5% of untreated control	–	–
Oc1cccc(-c2nc(N3CCOCC3)c3oc4ncccc4c3n2)c1 [PI-103]	43.7 ± 6.4% of untreated control	–	–	–	39 ± 8.9% of untreated control	–	46.2 ± 13.3%	–	–	–
Oc1c2ccccc2c2c3c(cccc13)N=N2 [SP600125]	66.0 ± 2.1% of untreated control	–	–	–	132 ± 9% of untreated control	–	50.3 ± 19.8%	–	–	–
Cn1cc(C2=C(c3ccc(Cl)cc3Cl)C(=O)NC2=O)c2ccccc21 [SB-216763]	80.0 ± 9% of untreated control	63 ± 3.6% of untreated control	–	–	–	–	54 ± 21.7%	–	–	–
N[C@H]1C(O)O[C@H](CO)[C@@H](O)[C@@H]1O (stereo partly drawn) [Glucosamine HCl]	99.3 ± 1.9% of untreated control	88 ± 5.2% of untreated control	–	–	–	–	242 ± 45.8%	–	–	–
COc1ccc(CCN(C)CCCC(C#N)(c2ccc(OC)c(OC)c2)C(C)C)cc1OC (stereo not drawn) [Verapamil·HCl]	–	71 ± 2.9% of untreated control	–	–	–	–	89 ± 40.8%	87.7 ± 0.9% of untreated control	–	–
Cn1cnc(N)c2ncnc1-2 [3-Methyladenine]	90.7 ± 1.8% of untreated control	120 ± 15.6% of untreated control	–	–	–	–	155 ± 41%	–	–	–
COc1cc(/C=C/C(=O)CC(=O)/C=C/c2ccc(O)c(OC)c2)ccc1O [Curcumin]	75.3 ± 11.3% of untreated control	3 ± 0.7% of untreated control	–	–	–	–	0.3 ± 0.2%	–	–	–
COc1cc(CNC(=O)CCCC/C=C/C(C)C)ccc1O [Capsaicin]	–	66 ± 7.2% of untreated control	–	–	–	–	48.1 ± 12%	91.7 ± 2.4% of untreated control	–	–
